From patent US6683181B2, “Pyrroloquinolones as antiviral agents” (Pharmacia and Upjohn Comapny, priority 2000, dated 2004)

Columns and labels:
CMV Polymerase = target: T1, CMV Polymerase (Human cytomegalovirus, UniProt P08546); test: HCMV polymerase scintillation proximity assay (modified version); assay type: biochemical; conditions: modified SPA assay; compounds diluted in 100% DMSO; 4.5 mM DTT
T1 construct: made in house; host or cells: recombinant baculovirus-infected SF-9 cells
Method: (§1) The HCMV polymerase assay is performed using a scintillation proximity assay (SPA) as described in several references, such as N. D. Cook, et al., Pharmaceutical Manufacturing International, pages 49-53 (1992); K. Takeuchi, Laboratory Practice, September issue (1992); U.S. Pat. No. 4,568,649 (1986); which are incorporated by reference herein. Reactions are performed in 96-well plates. The assay is conducted in 100 μl volume with 5.4 mM HEPES (pH 7.5), 11.7 mM KCl, 4.5 mM MgCl2, 0.36 mg/ml BSA, and 90 nM ^3H-dTTP. Assays are run with and without CHAPS, (3-[(3-Cholamidopropyl)-dimethylammonio]-1-propane-sulfonate) at a final concentration of 2 mM. HCMV polymerase is diluted in enzyme dilution buffer containing 50% glycerol, 250 mM NaCl, 10 mM HEPES (pH 7.5), 100 μg/ml BSA, and 0.01% sodium azide. The HCMV polymerase, which is expressed in recombinant baculovirus-infected SF-9 cells and purified according to literature procedures, is added at 10% (or 10 μl) of the final reaction volume, i.e., 100 μl. Compounds are diluted in 50% DMSO and 10 μl are added to each well. Control wells contain an equivalent concentration of DMSO. Unless noted otherwise, reactions are initiated via the addition of 6 nM biotinylated poly(dA)-oligo(dT) template/primer to reaction mixtures containing the enzyme, substrate, and compounds of interest. Plates are incubated in a 25° C. or 37° C. H2O bath and terminated via the addition of 40 μl/reaction of 0.5 M EDTA (pH 8) per well. Reactions are terminated within the time-frame during which substrate incorporation is linear and varied depending upon the enzyme and conditions used, i.e., 30 min. for HCMV polymerase. Ten μl of streptavidin-SPA beads (20 mg/ml in PBS/10% glycerol) are added following termination of the reaction. Plates are incubated 10 min. at 37° C., then equilibrated to room temperature, and counted on a Packard Topcount. Linear regressions are performed and IC50's are calculated using computer software.
A modified version of the above HCMV polymerase assay is performed as described above, but with the following changes: Compounds are diluted in 100% DMSO until final dilution into assay buffer. In the previous assay, compounds are diluted in 50% DMSO. 4.5 mM dithiotherotol (DTT) is added to the polymerase buffer.

HSV Polymerase = HSV Polymerase (Human herpesvirus 1, UniProt P04293); test: HSV polymerase assay; assay type: biochemical
Method: [Worded in the source for another target; used here, by the source, with some conditions changed.] as §1, with “software. […]” for “software.”

VZV Polymerase = VZV Polymerase (Varicella-zoster virus, UniProt P09252); test: VZV polymerase assay; assay type: biochemical
Method: [Worded in the source for another target; used here, by the source, with some conditions changed.] as §1, with “software. […]” for “software.”

Sequence of HSV Polymerase (P04293 whole entry): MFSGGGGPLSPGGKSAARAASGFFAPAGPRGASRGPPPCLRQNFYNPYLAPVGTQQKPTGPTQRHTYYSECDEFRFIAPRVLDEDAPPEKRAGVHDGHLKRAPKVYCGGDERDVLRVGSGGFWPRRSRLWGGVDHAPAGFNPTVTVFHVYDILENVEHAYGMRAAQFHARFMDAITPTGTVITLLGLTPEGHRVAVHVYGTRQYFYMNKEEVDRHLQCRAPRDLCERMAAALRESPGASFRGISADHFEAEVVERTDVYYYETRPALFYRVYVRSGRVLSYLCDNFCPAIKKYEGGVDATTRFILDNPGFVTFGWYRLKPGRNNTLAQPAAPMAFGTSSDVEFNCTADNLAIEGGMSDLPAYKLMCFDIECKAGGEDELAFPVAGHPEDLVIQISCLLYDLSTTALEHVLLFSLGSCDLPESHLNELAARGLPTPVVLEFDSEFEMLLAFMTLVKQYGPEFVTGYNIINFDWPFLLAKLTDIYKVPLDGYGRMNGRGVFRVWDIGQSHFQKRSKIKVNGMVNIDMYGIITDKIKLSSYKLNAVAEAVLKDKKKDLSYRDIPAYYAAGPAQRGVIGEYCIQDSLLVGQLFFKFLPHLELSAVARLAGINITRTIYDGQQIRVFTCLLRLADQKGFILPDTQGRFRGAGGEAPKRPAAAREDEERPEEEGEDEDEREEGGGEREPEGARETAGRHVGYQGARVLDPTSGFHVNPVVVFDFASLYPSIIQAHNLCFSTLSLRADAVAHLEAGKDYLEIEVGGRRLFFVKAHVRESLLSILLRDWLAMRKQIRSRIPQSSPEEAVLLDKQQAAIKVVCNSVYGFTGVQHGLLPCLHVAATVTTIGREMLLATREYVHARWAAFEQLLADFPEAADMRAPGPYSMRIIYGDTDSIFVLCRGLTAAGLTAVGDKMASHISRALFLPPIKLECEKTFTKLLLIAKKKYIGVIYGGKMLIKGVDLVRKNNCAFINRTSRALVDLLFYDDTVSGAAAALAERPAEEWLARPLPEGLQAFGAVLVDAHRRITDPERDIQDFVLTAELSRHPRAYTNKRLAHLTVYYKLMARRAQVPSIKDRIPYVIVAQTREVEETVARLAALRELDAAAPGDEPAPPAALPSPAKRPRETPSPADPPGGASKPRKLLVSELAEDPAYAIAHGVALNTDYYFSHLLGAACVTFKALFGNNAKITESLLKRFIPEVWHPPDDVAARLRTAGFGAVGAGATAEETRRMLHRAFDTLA
T1 sequence (P08546 whole entry): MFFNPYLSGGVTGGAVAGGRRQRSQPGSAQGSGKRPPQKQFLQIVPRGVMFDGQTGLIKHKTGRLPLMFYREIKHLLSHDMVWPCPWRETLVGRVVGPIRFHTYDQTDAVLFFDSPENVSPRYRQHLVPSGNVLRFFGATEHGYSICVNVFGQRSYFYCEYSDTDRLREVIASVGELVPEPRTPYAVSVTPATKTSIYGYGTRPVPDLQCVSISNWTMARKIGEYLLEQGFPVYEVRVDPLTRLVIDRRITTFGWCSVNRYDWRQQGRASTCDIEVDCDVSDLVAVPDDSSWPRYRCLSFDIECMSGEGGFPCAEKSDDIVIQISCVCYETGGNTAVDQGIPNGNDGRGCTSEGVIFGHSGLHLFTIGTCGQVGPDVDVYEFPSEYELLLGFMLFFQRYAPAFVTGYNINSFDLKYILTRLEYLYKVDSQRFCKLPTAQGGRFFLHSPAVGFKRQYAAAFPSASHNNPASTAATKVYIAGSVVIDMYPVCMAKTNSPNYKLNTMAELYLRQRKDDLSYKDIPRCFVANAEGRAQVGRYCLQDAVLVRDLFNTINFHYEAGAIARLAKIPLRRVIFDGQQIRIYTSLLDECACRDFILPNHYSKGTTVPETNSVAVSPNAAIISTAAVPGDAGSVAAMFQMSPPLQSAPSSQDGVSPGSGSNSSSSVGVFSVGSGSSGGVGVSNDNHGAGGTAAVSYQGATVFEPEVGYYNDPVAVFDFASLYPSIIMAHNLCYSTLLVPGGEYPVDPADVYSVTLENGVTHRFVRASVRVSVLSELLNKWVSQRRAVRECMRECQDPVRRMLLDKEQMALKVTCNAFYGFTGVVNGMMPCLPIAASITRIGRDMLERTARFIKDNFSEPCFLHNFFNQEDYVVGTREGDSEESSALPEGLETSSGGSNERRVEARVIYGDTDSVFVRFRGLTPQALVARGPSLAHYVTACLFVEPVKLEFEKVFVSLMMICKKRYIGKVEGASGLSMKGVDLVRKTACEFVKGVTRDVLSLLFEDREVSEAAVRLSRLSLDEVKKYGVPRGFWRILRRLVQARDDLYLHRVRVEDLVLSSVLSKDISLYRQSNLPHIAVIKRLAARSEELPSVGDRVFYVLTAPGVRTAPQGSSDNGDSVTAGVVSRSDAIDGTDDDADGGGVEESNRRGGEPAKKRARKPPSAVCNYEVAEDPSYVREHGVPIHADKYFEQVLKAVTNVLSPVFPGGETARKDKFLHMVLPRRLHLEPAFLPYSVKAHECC
Sequence of VZV Polymerase (P09252 whole entry): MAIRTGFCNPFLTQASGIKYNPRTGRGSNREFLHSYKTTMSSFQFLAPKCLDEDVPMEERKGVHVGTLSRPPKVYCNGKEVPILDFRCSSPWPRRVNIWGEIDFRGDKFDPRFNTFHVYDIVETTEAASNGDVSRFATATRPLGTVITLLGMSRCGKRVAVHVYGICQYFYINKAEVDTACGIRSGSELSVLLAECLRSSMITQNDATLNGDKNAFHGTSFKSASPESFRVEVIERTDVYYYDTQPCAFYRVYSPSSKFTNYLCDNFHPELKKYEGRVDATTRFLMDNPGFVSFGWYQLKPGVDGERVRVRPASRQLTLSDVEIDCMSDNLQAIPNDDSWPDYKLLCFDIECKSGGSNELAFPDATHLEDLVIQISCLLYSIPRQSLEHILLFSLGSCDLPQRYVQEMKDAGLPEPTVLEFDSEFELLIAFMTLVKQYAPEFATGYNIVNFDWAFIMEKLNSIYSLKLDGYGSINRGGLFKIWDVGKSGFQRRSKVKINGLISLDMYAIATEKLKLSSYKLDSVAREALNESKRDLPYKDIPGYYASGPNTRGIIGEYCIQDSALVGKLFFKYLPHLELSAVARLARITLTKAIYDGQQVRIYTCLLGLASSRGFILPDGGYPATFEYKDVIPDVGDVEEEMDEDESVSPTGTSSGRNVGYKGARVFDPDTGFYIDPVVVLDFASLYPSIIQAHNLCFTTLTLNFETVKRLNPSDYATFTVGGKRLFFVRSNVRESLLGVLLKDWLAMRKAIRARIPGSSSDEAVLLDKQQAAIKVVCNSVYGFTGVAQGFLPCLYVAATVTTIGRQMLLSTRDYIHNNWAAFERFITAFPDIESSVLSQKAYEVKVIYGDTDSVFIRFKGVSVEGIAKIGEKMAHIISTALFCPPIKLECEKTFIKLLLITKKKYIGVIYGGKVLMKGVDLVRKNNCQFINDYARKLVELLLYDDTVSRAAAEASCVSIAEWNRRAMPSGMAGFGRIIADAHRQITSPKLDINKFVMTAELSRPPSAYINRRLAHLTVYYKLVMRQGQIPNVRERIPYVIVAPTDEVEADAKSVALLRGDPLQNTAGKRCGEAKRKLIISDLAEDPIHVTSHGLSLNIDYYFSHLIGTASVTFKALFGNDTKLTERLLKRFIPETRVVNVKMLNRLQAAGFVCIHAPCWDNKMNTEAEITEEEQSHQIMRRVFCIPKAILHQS

SMILES	IC50 (CMV Polymerase) [nM]	melting point [°C]	IC50 (HSV Polymerase) [nM]	IC50 (VZV Polymerase) [nM]
O=C(NCc1ccc(Cl)cc1)c1cn2c(CO)cc3cccc(c1=O)c32 [Example 1, N-(4-Chlorobenzyl)-2-(hydroxymethyl)-6-oxo-6H-pyrrolo[3,2,1-ij]quinoline-5-carboxamide]	1200	211 to 213		
O=C(NCc1ccc(Cl)cc1)c1cn2c(CO)cc3cc(CC4CCOCC4)cc(c1=O)c32 [Example 2, N-(4-Chlorobenzyl)-2-(hydroxymethyl)-6-oxo-8-(tetrahydro-2H-pyran-4-ylmethyl)-6H-pyrrolo[3,2,1-ij]quinoline-5-carboxamide]	210	196 to 198	200	160
O=C(NCc1ccc(Cl)cc1)c1cn2c(CO)cc3cc(CN4CCOCC4)cc(c1=O)c32 [Example 3, N-(4-Chlorobenzyl)-2-(hydroxymethyl)-8-(4-morpholinylmethyl)-6-oxo-6H-pyrrolo[3,2,1-ij]quinoline-5-carboxamide]	530	210 to 212	510	250
CCN(CC)CCc1cc2cc(CN3CCOCC3)cc3c(=O)c(C(=O)NCc4ccc(Cl)cc4)cn1c23 [Example 6, N-(4-Chlorobenzyl)-2-[2-(diethylamino)ethyl]-8-(4-morpholinylmethyl)-6-oxo-6H-pyrrolo[3,2,1-ij]quinoline-5-carboxamide]	2430			
CN1CCN(CCc2cc3cc(CN4CCOCC4)cc4c(=O)c(C(=O)NCc5ccc(Cl)cc5)cn2c34)CC1 [Example 7, N-(4-Chlorobenzyl)-2-[2-(4-methylpiperazin-1-yl)ethyl]-8-(morpholin-4-ylmethyl)-6-oxo-6H-pyrrolo[3,2,1-ij]quinoline-5-carboxamide]	1760			
CCC1CCCCN1CCc1cc2cc(CN3CCOCC3)cc3c(=O)c(C(=O)NCc4ccc(Cl)cc4)cn1c23 (stereo not shown) [Example 8, N-(4-Chlorobenzyl)-2-[2-(2-ethylpiperidin-1-yl)ethyl]-8-(morpholin-4-ylmethyl)-6-oxo-6H-pyrrolo[3,2,1-ij]quinoline-5-carboxamide]	1920			
CN1CCN(CCCc2cc3cc(CN4CCOCC4)cc4c(=O)c(C(=O)NCc5ccc(Cl)cc5)cn2c34)CC1 [Example 9, N-(4-Chlorobenzyl)-2-[3-(4-methylpiperazin-1-yl)propyl]-8-(morpholin-4-ylmethyl)-6-oxo-6H-pyrrolo[3,2,1-ij]quinoline-5-carboxamide]	3440			
O=C(NCc1ccc(Cl)cc1)c1cn2c(CCN3CCCCC3)cc3cc(CN4CCOCC4)cc(c1=O)c32 [Example 10, N-(4-Chlorobenzyl)-8-(morpholin-4-ylmethyl)-6-oxo-2-(2-piperidin-1-ylethyl)-6H-pyrrolo[3,2,1-ij]quinoline-5-carboxamide]	2300			
O=C(NCc1ccc(Cl)cc1)c1cn2c(CCCN3CCOCC3)cc3cc(CN4CCOCC4)cc(c1=O)c32 [Example 11, N-(4-Chlorobenzyl)-8-(morpholin-4-ylmethyl)-2-(3-morpholin-4-ylpropyl)-6-oxo-6H-pyrrolo[3,2,1-ij]quinoline-5-carboxamide]	3570			
O=C(NCc1ccc(Cl)cc1)c1cn2c(CN3CCS(=O)(=O)CC3)cc3cc(CN4CCOCC4)cc(c1=O)c32 [Example 12, N-(4-Chlorobenzyl)-2-[(1,1-dioxido-4-thiomorpholinyl)methyl]-8-(4-morpholinylmethyl)-6-oxo-6H-pyrrolo[3,2,1-ij]quinoline-5-carboxamide]	360	236 to 239		
O=C(NCc1ccc(Cl)cc1)c1cn2c(CN3CCS(=O)(=O)CC3)c(I)c3cc(CN4CCOCC4)cc(c1=O)c32 [Example 13, N-(4-Chlorobenzyl)-2-[(1,1-dioxido-4-thiomorpholinyl)methyl]-1-iodo-8-(4-morpholinylmethyl)-6-oxo-6H-pyrrolo[3,2,1-ij]quinoline-5-carboxamide]	840	244 to 246		
O=C(NCc1ccc(Cl)cc1)c1cn2c(CCCO)cc3cc(CN4CCOCC4)cc(c1=O)c32 [Example 14, N-(4-Chlorobenzyl)-2-(3-hydroxypropyl)-8-(4-morpholinylmethyl)-6-oxo-6H-pyrrolo[3,2,1-ij]quinoline-5-carboxamide]	320	171 to 174		
NC(=O)NCc1cc2cc(CN3CCOCC3)cc3c(=O)c(C(=O)NCc4ccc(Cl)cc4)cn1c23 [Example 15, 2-{[(Aminocarbonyl)amino]methyl}-N-(4-chlorobenzyl)-8-(4-morpholinylmethyl)-6-oxo-6H-pyrrolo[3,2,1-ij]quinoline-5-carboxamide]	410	250 to 252		
C[C@@H](O)c1cc2cc(CN3CCOCC3)cc3c(=O)c(C(=O)NCc4ccc(Cl)cc4)cn1c23 [Example 16, N-(4-Chlorobenzyl)-2-[(IR)-1-hydroxyethyl]-8-(4-morpholinylmethyl)-6-oxo-6H-pyrrolo[3,2,1-ij]quinoline-5-carboxamide]	260	155 to 159		
COCc1cc2cc(CN3CCOCC3)cc3c(=O)c(C(=O)NCc4ccc(Cl)cc4)cn1c23 [Example 17, N-(4-Chlorobenzyl)-2-(methoxymethyl)-8-(4-morpholinylmethyl)-6-oxo-6H-pyrrolo[3,2,1-ij]quinoline-5-carboxamide]	540	157 to 159		
CCSCc1cc2cc(CN3CCOCC3)cc3c(=O)c(C(=O)NCc4ccc(Cl)cc4)cn1c23 [Example 18, N-(4-Chlorobenzyl)-2-[(ethylsulfanyl)methyl]-8-(4-morpholinylmethyl)-6-oxo-6H-pyrrolo[3,2,1-ij]quinoline-5-carboxamide]	580	177 to 178		
O=C(NCc1ccc(Cl)cc1)c1cn2c(CSc3ccccc3)cc3cc(CN4CCOCC4)cc(c1=O)c32 [Example 19, N-(4-Chlorobenzyl)-8-(4-morpholinylmethyl)-6-oxo-2-[(phenylsulfanyl)methyl]-6H-pyrrolo[3,2,1-ij]quinoline-5-carboxamide]	680	173 to 175		
CNCc1cc2cc(CN3CCOCC3)cc3c(=O)c(C(=O)NCc4ccc(Cl)cc4)cn1c23 [Example 20, N-(4-Chlorobenzyl)-2-[(methylamino)methyl]-8-(4-morpholinylmethyl)-6-oxo-6H-pyrrolo[3,2,1-ij]quinoline-5-carboxamide]	490			
CN(C)Cc1cc2cc(CN3CCOCC3)cc3c(=O)c(C(=O)NCc4ccc(Cl)cc4)cn1c23 [Example 21, N-(4-Chlorobenzyl)-2-[(dimethylamino)methyl]-8-(4-morpholinylmethyl)-6-oxo-6H-pyrrolo[3,2,1-ij]quinoline-5-carboxamide]	620			
O=C(NCc1ccc(Cl)cc1)c1cn2c(CCO)cc3cccc(c1=O)c32 [Example 22, N-(4-Chlorobenzyl)-2-(2-hydroxyethyl)-6-oxo-6H-pyrrolo[3,2,1-ij]quinoline-5-carboxamide]	1200	190 to 192		
O=C(NCc1ccc(Cl)cc1)c1cn2c(CCO)cc3cc(CC4CCOCC4)cc(c1=O)c32 [Example 23, N-(4-Chlorobenzyl)-2-(2-hydroxyethyl)-6-oxo-8-(tetrahydro-2H-pyran-4-ylmethyl)-6H-pyrrolo[3,2,1-ij]quinoline-5-carboxamide]	130	204 to 206	140	100
